Test results published in the supplement of paper PMC10307832.

What was measured:
Assay in all cases: relative viability (nuclei count vs DMSO), 5 days (fraction); higher = more cells survive
[1] = compound: C1CC(C1)(C(=O)O)C(=O)O.[NH2-].[NH2-].[Pt+2] [Carboplatin] + CC1(C)CCC(c2ccc(Cl)cc2)=C(CN2CCN(c3ccc(C(=O)NS(=O)(=O)c4ccc(N[C@H](CCN5CCOCC5)CSc5ccccc5)c(S(=O)(=O)C(F)(F)F)c4)cc3)CC2)C1 [Navitoclax] (partner 0.5 µM)
In short: (§1)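 After 5 days of treatment, lung cancer cells in 1536-well plates were fixed and stained in a single step (final 0.05% Triton X-100, 1% formaldehyde, 1 ug/ml Hoechst) and their nuclei counted on 4× images. Treatment had been applied by pin tool the day after seeding as one drug alone or as a fixed anchor-drug dose with five library-drug doses (not always all listed) in √10 steps. Relative viability is the nuclei count of treated wells divided by that of vehicle wells, and values are medians of duplicate plates.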

[2] = compound: NS(=O)(=O)OC[C@@H]1C[C@@H](n2ccc3c(N[C@H]4CCc5ccccc54)ncnc32)C[C@@H]1O [MLN4924] + CC1(C)CCC(c2ccc(Cl)cc2)=C(CN2CCN(c3ccc(C(=O)NS(=O)(=O)c4ccc(N[C@H](CCN5CCOCC5)CSc5ccccc5)c(S(=O)(=O)C(F)(F)F)c4)cc3)CC2)C1 [Navitoclax] (partner 0.5 µM)
In short: as §1

[3] = compound: NS(=O)(=O)OC[C@@H]1C[C@@H](n2ccc3c(N[C@H]4CCc5ccccc54)ncnc32)C[C@@H]1O [MLN4924] + Cc1cc(Nc2cc(N3CCN(C)CC3)nc(Sc3ccc(NC(=O)C4CC4)cc3)n2)n[nH]1 [Tozasertib] (partner 0.1 µM)
In short: as §1

[4] = compound: NS(=O)(=O)OC[C@@H]1C[C@@H](n2ccc3c(N[C@H]4CCc5ccccc54)ncnc32)C[C@@H]1O [MLN4924] + Cc1nc(NC(=O)N2CCC[C@H]2C(N)=O)sc1-c1ccnc(C(C)(C)C(F)(F)F)c1 [Alpelisib] (partner 2 µM)
In short: as §1

Cell Line	relative viability ([1]; first compound 0.08 µM)	relative viability ([1]; first compound 0.253 µM)	relative viability ([1]; first compound 0.8 µM)	relative viability ([1]; first compound 2.53 µM)	relative viability ([1]; first compound 8 µM)	relative viability ([2]; first compound 0.04 µM)	relative viability ([2]; first compound 0.1265 µM)	relative viability ([2]; first compound 0.4 µM)	relative viability ([2]; first compound 1.265 µM)	relative viability ([2]; first compound 4 µM)	relative viability ([3]; first compound 0.04 µM)	relative viability ([3]; first compound 0.1265 µM)	relative viability ([3]; first compound 0.4 µM)	relative viability ([3]; first compound 1.265 µM)	relative viability ([3]; first compound 4 µM)	relative viability ([4]; first compound 0.04 µM)	relative viability ([4]; first compound 0.1265 µM)	relative viability ([4]; first compound 0.4 µM)	relative viability ([4]; first compound 1.265 µM)	relative viability ([4]; first compound 4 µM)
NCI-H1651	0.973	1.13	0.982	0.904	0.538	1.1	1.08	0.492	0.267	0.142	0.759	0.782	0.524	0.321	0.133	1.11	0.961	0.793	0.362	0.168
NCI-H1666	1.04	1.12	0.745	0.853	0.641	0.858	0.503	0.328	0.213	0.224	0.56	0.635	0.447	0.266	0.27	1.18	0.832	0.432	0.148	0.205
NCI-H1734	0.873	0.905	0.873	0.729	0.676	0.943	0.814	0.331	0.103	0.0958	0.261	0.267	0.154	0.12	0.0994	0.947	0.95	0.246	0.139	0.118
NCI-H1755	1.02	1.01	1.04	1.02	0.891	0.921	0.677	0.392	0.178	0.154	0.529	0.411	0.291	0.208	0.209	0.835	0.638	0.475	0.172	0.145
NCI-H1793	0.496	0.585	0.388	0.453	0.435	0.386	0.458	0.412	0.276	0.283	0.337	0.356	0.368	0.252	0.168	0.804	0.801	0.732	0.513	0.276
NCI-H1915	0.795	0.751	0.745	0.752	0.579	0.725	0.744	0.642	0.246	0.265	0.399	0.362	0.395	0.212	0.159	1.03	0.865	0.892	0.216	0.17
NCI-H1944	1.1	1.1	0.991	1.02	0.656	1.05	0.979	0.873	0.209	0.215	0.233	0.226	0.235	0.159	0.117	1.02	1.02	1.04	0.23	0.188
NCI-H1975	1.19	1.26	1.01	1.09	1.18	1.15	1.27	1.14	0.571	0.309	0.675	0.836	0.796	0.451	0.241	0.694	1.11	1.26	0.339	0.21
NCI-H1993	0.981	0.867	0.855	0.755	0.861	0.962	0.618	0.584	0.505	0.584	0.489	0.478	0.51	0.449	0.498	0.808	0.555	0.596	0.569	0.541
NCI-H2009	1.12	1.08	1.09	1.04	0.733	0.809	0.365	0.293	0.0903	0.0793	0.724	0.433	0.257	0.126	0.0886	0.987	0.791	0.299	0.151	0.114
NCI-H2023	1.02	0.96	0.883	0.76	0.312	1	0.758	0.362	0.109	0.0667	0.35	0.31	0.171	0.0719	0.0659	0.731	0.528	0.224	0.0584	0.0729
NCI-H2085	1.25	1.09	1.09	1.05	1.09	1.25	1.1	1.12	0.733	0.366	0.855	0.894	0.827	0.78	0.48	0.921	1.01	0.94	0.743	0.416
NCI-H2087	0.944	1.03	0.944	1.01	0.895	0.923	0.682	0.379	0.177	0.132	0.189	0.257	0.244	0.0576	0.0697	1.13	0.815	0.381	0.178	0.136
NCI-H2126	0.894	0.871	0.853	0.865	0.784	0.764	0.742	0.621	0.386	0.446	0.821	0.813	0.514	0.339	0.25	0.781	0.718	0.647	0.338	0.273
NCI-H2170	0.679	0.594	0.633	0.588	0.508	0.709	0.313	0.34	0.144	0.164	0.722	0.407	0.325	0.151	0.155	0.906	0.555	0.457	0.169	0.171
NCI-H2228	1.2	0.818	0.855	0.744	0.472	–	1.03	0.221	0.135	0.155	0.259	0.195	0.122	0.144	0.123	–	0.833	0.415	0.176	0.18
